The values that follow are results of earlier work, collected in patent US9629386B2, “Nutrition composition” (AJINOMOTO CO., INC., priority 2008, dated 2017).

The subject of this data set is CRP and nutrition condition. To be noted: 1.2 g to 11 dialysis patients for 12 weeks.

As to ω-3 fatty acid, the CRP result is “did not decrease CRP” and the nutrition condition entry is given as “did not improve nutrition condition”.
